Assay results reported in ChEMBL document CHEMBL5108007, “High ligand efficiency quinazoline compounds as novel A2A adenosine receptor antagonists” (Eur J Med Chem, 2022).

Molecular target: Adenosine receptor A2a (Homo sapiens, UniProt P29274)
Experiment: Displacement of [3H]ZM241385 from human adenosine A2A receptor expressed in HEK293 cell membrane incubated for 1 hr by microplate beta scintillation counting based radioligand inhibition assay
Format: cell membranes

Adenosine receptor A2a, sequence (P29274 whole entry): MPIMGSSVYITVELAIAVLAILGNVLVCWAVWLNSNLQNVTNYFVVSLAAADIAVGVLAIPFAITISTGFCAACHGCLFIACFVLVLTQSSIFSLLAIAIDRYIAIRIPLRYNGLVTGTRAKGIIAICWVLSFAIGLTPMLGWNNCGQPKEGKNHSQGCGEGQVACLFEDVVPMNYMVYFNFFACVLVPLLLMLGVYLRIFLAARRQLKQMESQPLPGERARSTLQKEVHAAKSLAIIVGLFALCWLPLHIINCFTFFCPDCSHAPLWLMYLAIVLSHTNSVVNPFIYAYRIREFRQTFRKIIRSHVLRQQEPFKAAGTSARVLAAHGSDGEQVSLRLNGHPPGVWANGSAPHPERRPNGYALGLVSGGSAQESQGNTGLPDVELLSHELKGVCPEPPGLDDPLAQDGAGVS

Row | SMILES | Ki
1 | NCc1nc(-c2ccco2)c2ccccc2n1 | > 10 µM
2 | Nc1nc(-c2ccccc2)c2ccccc2n1 | 0.198 µM
3 | COc1ccccc1-c1nc(N)nc2ccccc12 | 0.651 µM
4 | Oc1nc(-c2ccccc2)c2ccccc2n1 | > 10 µM
5 | Nc1nc(-c2ccccc2F)c2ccccc2n1 | 0.456 µM
6 | Nc1nc(NCCc2ccccc2)c2ccccc2n1 | > 10 µM
7 | c1ccc(CCNc2ncnc3ccccc23)cc1 | > 10 µM
8 | Cc1ccccc1-c1nc(N)nc2ccccc12 | 3.3 µM
9 | Nc1nc(CCc2ccccc2)c2ccccc2n1 | > 10 µM
10 | C(#Cc1ncnc2ccccc12)c1ccccc1 | 4 µM
11 | NCc1nc(NCCc2ccccc2)c2ccccc2n1 | > 10 µM
12 | Nc1nc(-c2ccccc2[N+](=O)[O-])c2ccccc2n1 | > 10 µM
13 | COc1cccc(-c2nc(N)nc3ccccc23)c1 | 0.708 µM
14 | Cc1ccc(-c2nc(N)nc3ccccc23)cc1 | 1.5 µM
15 | NCc1nc(-c2ccccc2)c2ccccc2n1 | > 10 µM
16 | c1ccc(-c2ncnc3ccccc23)cc1 | 2.3 µM
17 | Nc1nc(-c2cccc(F)c2)c2ccccc2n1 | 0.174 µM
18 | Nc1nc(Nc2ccccc2)c2ccccc2n1 | > 10 µM
19 | Nc1nc(-c2ccco2)c2ccccc2n1 | 0.089 µM
20 | Nc1nc(-c2ccc(F)cc2)c2ccccc2n1 | 0.08 µM
21 | Nc1nc(-c2ccccc2N)c2ccccc2n1 | 2 µM
22 | N#Cc1cccc(-c2nc(N)nc3ccccc23)c1 | 0.586 µM
23 | Nc1nc(NCc2ccccc2)c2ccccc2n1 | > 10 µM
24 | COc1ccc(-c2nc(N)nc3ccccc23)cc1 | 0.736 µM
25 | Cc1cccc(C)c1-c1nc(N)nc2ccccc12 | > 10 µM
26 | CC(C)(C)c1ccc(-c2nc(N)nc3ccccc23)cc1 | > 10 µM
27 | Clc1nc(-c2ccccc2)c2ccccc2n1 | > 10 µM
28 | Nc1nc(-c2cccs2)c2ccccc2n1 | 0.171 µM
29 | Nc1nc(-c2ccoc2)c2ccccc2n1 | 0.696 µM
30 | Nc1nc(-c2ccccc2)nc2ccccc12 | > 10 µM
